# Key:
# Assay in all cases: KinomeScan kinase profiling
# Assay type in all cases: binding
# [1] = biological target: T1, CDK8 (Homo sapiens, UniProt P49336)
# T1 construct: host or cells: T7 phage in E. coli (BL21-derived)
# Procedure, shortened: (§1)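 Kinases were expressed as T7 phage fusions in a BL21-derived E. coli host and the cleared lysates were used. Ligand beads were blocked with biotin and buffer (1% BSA, 0.05% Tween 20, 1 mM DTT). Compounds came from 40× DMSO stocks, and phage in the eluates was titred by qPCR.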
# [2] = biological target: T2, LKB1 (Homo sapiens, UniProt Q15831)
# T2 construct: host or cells: E. coli derived from BL21, infected with T7 phage
# Procedure, shortened: as §1
# [3] = biological target: T3, TTK (Homo sapiens, UniProt P33981)
# T3 construct: purchased Ambit Biosciences Corp (KinomeScan); host or cells: E. coli host derived from the BL21 strain (T7 phage lysate)
# Procedure, shortened: as §1
# [4] = biological target: T4, PIK3CD (Homo sapiens, UniProt O00329)
# T4 construct: purchased Ambit Biosciences Corp (KinomeScan); host or cells: E. coli host derived from BL21, infected with T7 phage
# Procedure, shortened: as §1
# [5] = biological target: T5, FLT3 (Homo sapiens, UniProt P36888)
# T5 construct: host or cells: E. coli host derived from BL21, infected with T7 phage
# Procedure, shortened: as §1
# [6] = biological target: T6, EGFR (G719S) (Homo sapiens, UniProt P00533, G719S)
# T6 construct: purchased Ambit Biosciences Corp (KinomeScan); host or cells: T7 phage in E. coli host derived from BL21
# Procedure, shortened: as §1
# [7] = biological target: T7, MYLK2 (Homo sapiens, UniProt Q9H1R3)
# T7 construct: host or cells: T7 phage in E. coli host derived from BL21
# Procedure, shortened: as §1
# [8] = biological target: T8, SgK110 (Homo sapiens, UniProt P0C264)
# T8 construct: host or cells: E. coli host derived from the BL21 strain, T7 phage lysate
# Procedure, shortened: as §1
# [9] = biological target: T9, PAK1 (Homo sapiens, UniProt Q13153)
# T9 construct: host or cells: E. coli host derived from the BL21 strain, infected with T7 phage
# Procedure, shortened: as §1
# [10] = biological target: T10, MYO3A (Homo sapiens, UniProt Q8NEV4)
# T10 construct: host or cells: T7 phage in E. coli host derived from BL21
# Procedure, shortened: as §1
# [11] = biological target: T11, PHKG2 (Homo sapiens, UniProt P15735)
# T11 construct: host or cells: E. coli host derived from the BL21 strain, infected with T7 phage
# Procedure, shortened: as §1
# [12] = biological target: T12, PCTK3 (Homo sapiens, UniProt Q07002)
# T12 construct: host or cells: E. coli host derived from the BL21 strain, infected with T7 phage
# Procedure, shortened: as §1
# [13] = biological target: T13, BRSK2 (Homo sapiens, UniProt Q8IWQ3)
# T13 construct: purchased Ambit Biosciences Corp (KinomeScan); host or cells: E. coli host derived from the BL21 strain, T7 phage
# Procedure, shortened: as §1
# [14] = biological target: T14, MEK3 (Homo sapiens, UniProt P46734)
# T14 construct: host or cells: E. coli derived from BL21, infected with T7 phage
# Procedure, shortened: as §1
# [15] = biological target: T15, NEK5 (Homo sapiens, UniProt Q6P3R8)
# T15 construct: host or cells: T7 phage in E. coli host derived from BL21
# Procedure, shortened: as §1
# [16] = biological target: T16, RIPK2 (Homo sapiens, UniProt O43353)
# T16 construct: host or cells: E. coli host derived from BL21, T7 phage lysate
# Procedure, shortened: as §1
# [17] = biological target: T17, ERK4 (Homo sapiens, UniProt P31152)
# T17 construct: host or cells: E. coli host derived from BL21, T7 phage lysate
# Procedure, shortened: as §1
# [18] = biological target: T18, TYK2 (JH2domain-pseudokinase) (Homo sapiens, UniProt P29597)
# T18 construct: TYK2 (JH2domain-pseudokinase); purchased Ambit Biosciences Corp (KinomeScan); host or cells: E. coli host derived from the BL21 strain (T7 phage lysate)
# Procedure, shortened: as §1
# [19] = biological target: T19, TRKA (Homo sapiens, UniProt P04629)
# T19 construct: purchased Ambit Biosciences Corp (KinomeScan); host or cells: E. coli host derived from the BL21 strain (T7 phage lysate)
# Procedure, shortened: as §1
# [20] = biological target: T20, TIE1 (Homo sapiens, UniProt P35590)
# T20 construct: host or cells: E. coli host derived from the BL21 strain, T7 phage lysate
# Procedure, shortened: as §1
# [21] = biological target: T21, AAK1 (Homo sapiens, UniProt Q2M2I8)
# T21 construct: host or cells: E. coli host derived from BL21 (T7 phage lysate)
# Procedure, shortened: as §1
# [22] = biological target: T22, TNNI3K (Homo sapiens, UniProt Q59H18)
# T22 construct: purchased Ambit Biosciences Corp (KinomeScan); host or cells: E. coli host derived from the BL21 strain (T7 phage lysate)
# Procedure, shortened: as §1
# T9 sequence (Q13153 whole entry): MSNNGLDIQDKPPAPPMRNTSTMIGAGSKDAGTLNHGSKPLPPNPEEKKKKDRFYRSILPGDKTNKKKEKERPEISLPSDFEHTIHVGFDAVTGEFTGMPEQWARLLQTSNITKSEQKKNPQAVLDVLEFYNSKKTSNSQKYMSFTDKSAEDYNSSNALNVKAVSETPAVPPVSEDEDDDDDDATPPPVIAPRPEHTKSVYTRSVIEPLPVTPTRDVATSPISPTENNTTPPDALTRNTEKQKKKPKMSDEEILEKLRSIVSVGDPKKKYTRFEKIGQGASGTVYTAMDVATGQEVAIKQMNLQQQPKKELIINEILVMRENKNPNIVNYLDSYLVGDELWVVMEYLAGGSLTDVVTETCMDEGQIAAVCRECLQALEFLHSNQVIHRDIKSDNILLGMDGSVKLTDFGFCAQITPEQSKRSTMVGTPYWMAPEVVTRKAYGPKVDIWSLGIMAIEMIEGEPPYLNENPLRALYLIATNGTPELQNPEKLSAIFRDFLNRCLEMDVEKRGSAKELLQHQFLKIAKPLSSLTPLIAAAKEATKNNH
# T13 sequence (Q8IWQ3 whole entry): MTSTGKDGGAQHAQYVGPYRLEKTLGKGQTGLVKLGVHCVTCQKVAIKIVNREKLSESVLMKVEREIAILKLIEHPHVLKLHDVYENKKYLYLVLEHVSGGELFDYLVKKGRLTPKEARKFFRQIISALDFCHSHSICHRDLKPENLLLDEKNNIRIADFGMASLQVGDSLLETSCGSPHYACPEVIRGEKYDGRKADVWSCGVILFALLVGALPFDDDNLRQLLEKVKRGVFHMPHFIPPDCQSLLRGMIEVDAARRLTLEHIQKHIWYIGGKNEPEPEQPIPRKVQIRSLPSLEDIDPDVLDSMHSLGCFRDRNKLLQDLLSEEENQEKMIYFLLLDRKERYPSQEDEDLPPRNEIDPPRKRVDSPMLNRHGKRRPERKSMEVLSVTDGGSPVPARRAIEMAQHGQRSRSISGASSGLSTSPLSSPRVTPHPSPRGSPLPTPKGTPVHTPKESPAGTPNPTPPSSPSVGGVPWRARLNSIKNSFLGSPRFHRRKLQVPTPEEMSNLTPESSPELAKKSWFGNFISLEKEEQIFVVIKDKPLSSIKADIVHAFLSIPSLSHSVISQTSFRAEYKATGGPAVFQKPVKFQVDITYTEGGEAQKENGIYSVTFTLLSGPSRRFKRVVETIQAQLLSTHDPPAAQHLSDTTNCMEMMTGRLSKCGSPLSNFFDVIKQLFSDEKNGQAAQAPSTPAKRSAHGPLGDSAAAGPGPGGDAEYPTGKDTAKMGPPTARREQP
# T21 sequence (Q2M2I8 whole entry): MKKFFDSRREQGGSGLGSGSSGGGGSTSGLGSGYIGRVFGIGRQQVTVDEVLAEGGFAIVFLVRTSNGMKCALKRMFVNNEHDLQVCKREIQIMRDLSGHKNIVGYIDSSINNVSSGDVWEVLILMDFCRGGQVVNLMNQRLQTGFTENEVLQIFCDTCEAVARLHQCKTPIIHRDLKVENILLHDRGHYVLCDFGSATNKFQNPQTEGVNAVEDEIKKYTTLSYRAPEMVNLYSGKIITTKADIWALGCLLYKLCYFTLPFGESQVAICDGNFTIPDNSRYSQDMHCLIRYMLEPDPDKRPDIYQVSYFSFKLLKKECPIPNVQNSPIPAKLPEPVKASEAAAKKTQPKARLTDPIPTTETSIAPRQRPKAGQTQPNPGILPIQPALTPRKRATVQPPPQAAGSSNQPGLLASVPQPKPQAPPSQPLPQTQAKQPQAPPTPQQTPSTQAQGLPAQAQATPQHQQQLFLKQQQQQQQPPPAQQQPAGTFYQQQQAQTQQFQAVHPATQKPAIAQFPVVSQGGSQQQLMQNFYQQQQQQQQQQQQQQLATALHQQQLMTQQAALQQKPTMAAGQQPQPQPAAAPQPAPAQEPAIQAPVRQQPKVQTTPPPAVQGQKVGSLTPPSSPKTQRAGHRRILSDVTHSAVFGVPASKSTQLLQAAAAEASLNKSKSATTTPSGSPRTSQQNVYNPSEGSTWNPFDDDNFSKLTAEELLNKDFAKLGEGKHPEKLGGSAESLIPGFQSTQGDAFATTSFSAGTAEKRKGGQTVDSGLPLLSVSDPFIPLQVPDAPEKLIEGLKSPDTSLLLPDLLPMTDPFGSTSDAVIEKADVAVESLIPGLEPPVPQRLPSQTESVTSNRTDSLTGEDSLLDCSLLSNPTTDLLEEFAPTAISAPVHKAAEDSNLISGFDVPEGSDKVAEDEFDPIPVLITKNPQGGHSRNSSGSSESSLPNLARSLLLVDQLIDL
# T3 sequence (P33981 whole entry): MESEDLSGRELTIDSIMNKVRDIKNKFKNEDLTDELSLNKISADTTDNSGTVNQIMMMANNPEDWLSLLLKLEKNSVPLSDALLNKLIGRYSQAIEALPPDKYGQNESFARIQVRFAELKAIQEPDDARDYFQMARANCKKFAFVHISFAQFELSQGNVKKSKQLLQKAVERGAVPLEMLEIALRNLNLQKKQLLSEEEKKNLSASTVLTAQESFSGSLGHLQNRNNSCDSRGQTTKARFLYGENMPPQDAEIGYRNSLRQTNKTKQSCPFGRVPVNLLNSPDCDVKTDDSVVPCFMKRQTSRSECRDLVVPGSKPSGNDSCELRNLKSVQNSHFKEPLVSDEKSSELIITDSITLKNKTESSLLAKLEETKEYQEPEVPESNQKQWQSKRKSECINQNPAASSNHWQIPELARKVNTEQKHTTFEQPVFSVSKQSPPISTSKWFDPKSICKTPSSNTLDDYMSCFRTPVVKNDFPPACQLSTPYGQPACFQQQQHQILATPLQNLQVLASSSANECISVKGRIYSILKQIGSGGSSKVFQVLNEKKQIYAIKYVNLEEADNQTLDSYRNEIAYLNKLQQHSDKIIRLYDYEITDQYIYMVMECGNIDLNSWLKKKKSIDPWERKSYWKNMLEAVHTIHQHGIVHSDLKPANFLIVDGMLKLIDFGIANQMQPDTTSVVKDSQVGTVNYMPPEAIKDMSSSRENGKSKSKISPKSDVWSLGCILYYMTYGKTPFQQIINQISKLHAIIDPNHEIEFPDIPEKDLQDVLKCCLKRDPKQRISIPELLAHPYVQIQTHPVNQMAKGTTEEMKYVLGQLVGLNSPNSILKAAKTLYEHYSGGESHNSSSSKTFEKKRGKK
# T11 sequence (P15735 whole entry): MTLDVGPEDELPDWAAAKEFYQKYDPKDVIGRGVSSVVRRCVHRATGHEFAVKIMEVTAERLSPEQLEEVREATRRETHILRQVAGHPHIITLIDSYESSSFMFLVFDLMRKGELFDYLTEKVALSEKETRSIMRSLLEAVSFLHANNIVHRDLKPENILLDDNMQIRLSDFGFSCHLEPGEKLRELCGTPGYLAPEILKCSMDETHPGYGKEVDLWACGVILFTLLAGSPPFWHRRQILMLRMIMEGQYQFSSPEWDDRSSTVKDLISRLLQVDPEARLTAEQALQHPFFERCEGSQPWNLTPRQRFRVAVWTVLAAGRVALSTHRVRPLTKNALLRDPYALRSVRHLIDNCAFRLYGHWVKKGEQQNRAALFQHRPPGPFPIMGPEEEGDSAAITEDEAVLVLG
# T7 sequence (Q9H1R3 whole entry): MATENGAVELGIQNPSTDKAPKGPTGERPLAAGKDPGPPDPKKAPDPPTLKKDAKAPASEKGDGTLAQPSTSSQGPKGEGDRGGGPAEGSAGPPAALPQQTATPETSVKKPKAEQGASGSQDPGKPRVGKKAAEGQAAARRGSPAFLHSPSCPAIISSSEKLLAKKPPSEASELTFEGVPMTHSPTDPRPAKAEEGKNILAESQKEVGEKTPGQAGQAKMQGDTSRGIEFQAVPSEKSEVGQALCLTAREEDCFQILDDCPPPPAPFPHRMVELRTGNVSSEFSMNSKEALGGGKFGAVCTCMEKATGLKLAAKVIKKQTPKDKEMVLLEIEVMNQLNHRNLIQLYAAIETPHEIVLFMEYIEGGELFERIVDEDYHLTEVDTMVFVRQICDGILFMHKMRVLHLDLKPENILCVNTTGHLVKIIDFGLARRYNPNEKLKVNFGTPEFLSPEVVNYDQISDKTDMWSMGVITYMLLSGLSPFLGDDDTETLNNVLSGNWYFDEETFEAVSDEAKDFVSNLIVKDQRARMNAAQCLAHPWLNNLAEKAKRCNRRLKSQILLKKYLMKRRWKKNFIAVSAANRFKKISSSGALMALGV
# T19 sequence (P04629 33-796): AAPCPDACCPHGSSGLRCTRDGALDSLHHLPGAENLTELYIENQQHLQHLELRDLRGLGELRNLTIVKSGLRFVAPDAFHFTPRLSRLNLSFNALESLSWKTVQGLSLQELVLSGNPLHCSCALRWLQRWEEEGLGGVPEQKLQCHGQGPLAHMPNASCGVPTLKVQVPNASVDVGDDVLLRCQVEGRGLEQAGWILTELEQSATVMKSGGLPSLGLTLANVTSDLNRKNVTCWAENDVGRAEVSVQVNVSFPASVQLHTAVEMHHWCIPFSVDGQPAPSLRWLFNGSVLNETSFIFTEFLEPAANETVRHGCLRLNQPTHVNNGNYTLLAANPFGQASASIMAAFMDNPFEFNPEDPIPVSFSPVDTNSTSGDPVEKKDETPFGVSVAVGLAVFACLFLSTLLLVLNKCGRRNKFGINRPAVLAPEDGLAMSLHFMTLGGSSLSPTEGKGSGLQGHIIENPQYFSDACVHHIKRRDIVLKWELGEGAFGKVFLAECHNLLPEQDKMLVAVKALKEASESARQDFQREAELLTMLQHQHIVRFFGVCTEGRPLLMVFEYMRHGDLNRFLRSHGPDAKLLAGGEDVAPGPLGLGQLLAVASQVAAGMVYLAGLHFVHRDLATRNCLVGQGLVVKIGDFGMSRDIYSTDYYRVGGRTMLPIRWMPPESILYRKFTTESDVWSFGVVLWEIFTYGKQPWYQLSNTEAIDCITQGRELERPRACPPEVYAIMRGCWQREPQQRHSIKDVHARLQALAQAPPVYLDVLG
structure (smiles),measurement,setting,value
"C#Cc1cccc(Nc2ncnc3cc(OC)c(OCCCN4CCOCC4)cc23)c1 [NRC-2694, N-(3-ethylnylphenyl)-7-methoxy-6-[3-(4-morpholinyl)propoxy]-4-quinazolinamine]",% Ctrl @ 10000 nM,[1],100 % Ctrl
same,% Ctrl @ 10000 nM,[2],69 % Ctrl
same,% Ctrl @ 10000 nM,[3],48 % Ctrl
same,% Ctrl @ 10000 nM,[4],89 % Ctrl
same,% Ctrl @ 10000 nM,[5],49 % Ctrl
same,% Ctrl @ 10000 nM,[6],0 % Ctrl
same,% Ctrl @ 10000 nM,[7],4.8 % Ctrl
same,% Ctrl @ 10000 nM,[8],83 % Ctrl
same,% Ctrl @ 10000 nM,[9],74 % Ctrl
same,% Ctrl @ 10000 nM,[10],70 % Ctrl
same,% Ctrl @ 10000 nM,[11],59 % Ctrl
same,% Ctrl @ 10000 nM,[12],82 % Ctrl
same,% Ctrl @ 10000 nM,[13],33 % Ctrl
same,% Ctrl @ 10000 nM,[14],100 % Ctrl
same,% Ctrl @ 10000 nM,[15],94 % Ctrl
same,% Ctrl @ 10000 nM,[16],2.4 % Ctrl
same,% Ctrl @ 10000 nM,[17],3.7 % Ctrl
same,% Ctrl @ 10000 nM,[18],23 % Ctrl
same,% Ctrl @ 10000 nM,[19],100 % Ctrl
same,% Ctrl @ 10000 nM,[20],52 % Ctrl
same,% Ctrl @ 10000 nM,[21],38 % Ctrl
same,% Ctrl @ 10000 nM,[22],7.6 % Ctrl

# From patent publication US9050341B2, “Methods of treating drug resistant and other tumors by administering 6,7-dialkoxy quinazoline derivatives” (NATCO PHARMA LIMITED, priority 2009, dated 2015)
